Assay results as given in patent US20040180927A1, “Inhibitors of cysteine protease” (SmithKline Beecham Corporation, priority 1996, published 2004).

Molecular target: T1, cathepsin K (Homo sapiens, UniProt P43235)
T1 sequence (P43235 115-329): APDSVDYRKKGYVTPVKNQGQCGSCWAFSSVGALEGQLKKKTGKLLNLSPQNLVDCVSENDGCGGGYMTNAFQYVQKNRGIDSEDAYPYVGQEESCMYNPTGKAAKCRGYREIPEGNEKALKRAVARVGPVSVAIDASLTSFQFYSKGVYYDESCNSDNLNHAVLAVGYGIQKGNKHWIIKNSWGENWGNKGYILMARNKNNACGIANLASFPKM
Assay: Determination of cathepsin K proteolytic catalytic activity; inhibition studies (progress curve method)
Type: biochemical
Conditions: human recombinant enzyme, fluorogenic substrate Cbz-Phe-Arg-AMC, pH 5.5
Procedure: Determination of cathepsin K proteolytic catalytic activity
All assays for cathepsin K were carried out with human recombinant enzyme. Standard assay conditions for the determination of kinetic constants used a fluorogenic peptide substrate, typically Cbz-Phe-Arg-AMC, and were determined in 100 mM Na acetate at pH 5.5 containing 20 mM cysteine and 5 mM EDTA. Stock substrate solutions were prepared at concentrations of 10 or 20 mM in DMSO with 20 uM final substrate concentration in the assays. All assays contained 10% DMSO. […] All assays were conducted at ambient temperature. Product fluorescence (excitation at 360 nm; emission at 460 nm) was monitored with a Perceptive Biosystems Cytofluor II fluorescent plate reader. […]
Potential inhibitors were evaluated using the progress curve method. […] For those compounds whose progress curves were linear, apparent inhibition constants (Ki,app) were calculated according to equation 1 (Brandt et al., Biochemitsry, 1989, 28, 140): […]
[AMC]=νSSt+(ν0−νSS) [I−exp(−kobst)]/kobs (2) where [AMC] is the concentration of product formed over time t, ν0 is the initial reaction velocity and νSS is the final steady state rate. Values for kobs were then analyzed as a linear function of inhibitor concentration to generate an apparent second order rate constant (kobs/inhibitor concentration or kobs/[1]) describing the time-dependent inhibition. […]

In the case of `CC(C)C[C@H](NS(=O)(=O)c1cccc2cccnc12)C(=O)NC1COCC1=O` (mixture of isomers) [4-(R,S)-Amino-N-[(8-quinolinesulfonyl)-S-leucine]-3-tetrahydrofuran-3-one], the Ki is reported as over 10 µM.
